For series [1] the following is noted: Crystal; DTA.
A short description of series [2]: Molar enthalpy of transition or fusion. Particulars: Crystal; DSC.
Series [3] in a line: molar enthalpy of vaporization or sublimation. To be noted: 298.15 K, vacuum sublimation/vaporization calorimetry.

Each structure is given as a SMILES string. ± gives the expanded uncertainty stated by the source.

Take `O=[N+]([O-])c1ccc2c(c1)OCO2` [1,2-(methylenedioxy)-4-nitrobenzene]: the Normal melting temperature in series [1] amounted to 147.01 ± 0.39 °C. Further, in series [2], the “Molar enthalpy of transition or fusion” value stood at 6.74 ± 0.287 kcal/mol. In addition, in series [3] (Crystal), the molar enthalpy amounted to 23.3 ± 1.03 kcal/mol.
For `N#Cc1ccc2c(c1)OCO2` [3,4-methylenedioxybenzonitrile], in that order: 93.11 ± 0.39 °C, 4.97 ± 0.12 kcal/mol and 21.7 ± 0.43 kcal/mol.
On to `Cc1ccc2c(c1)OCO2` [5-methyl-1,3-benzodioxole], for which the molar enthalpy in series [3] (Liquid) was 13.1 ± 0.55 kcal/mol.
On to `CC(=O)c1ccc2c(c1)OCO2` [5-oxoethyl-1,3-benzodioxole], for which the Normal melting temperature in series [1] came to 85.72 ± 0.39 °C. Besides, in series [2], the “Molar enthalpy of transition or fusion” value was determined as 6.27 ± 0.141 kcal/mol. In addition, in series [3] (Crystal), the molar enthalpy came to 25 ± 1.03 kcal/mol.

The values are drawn from the NIST ThermoML archive (doi:10.1021/je700035m).
